Results published in PubChem BioAssay (NCI).
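Interpolation was linear, between the two tested concentrations surrounding the appropriate level; five concentrations were tested over 48 hours in 96-well plates. TGI: concentration producing complete growth inhibition.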 Where a SMILES comes first, the peptide text is derived from it. [ ]: non-standard residue; d: D form. The star is where a group is joined. Phe(4-NO2) = N[CH](Cc1ccc([N+](=O)[O-])cc1)C(=O)O; Boc = CC(C)(C)OC(=O)*; OBn = c1ccc(CO*)cc1

Legend:
Assay in all cases: NCI anticancer screen, dose series, 48 h
DLD-1 colon = test system: DLD-1 colon
CCRF-CEM leukemia = test system: CCRF-CEM leukemia
UO-31 renal = test system: UO-31 renal
LXFL 529 NSCLC = test system: LXFL 529 NSCLC
NCI-H522 lung = test system: NCI-H522 lung
DMS 273 small cell lung = test system: DMS 273 small cell lung
SK-OV-3 ovarian = test system: SK-OV-3 ovarian
SK-MEL-28 melanoma = test system: SK-MEL-28 melanoma
ACHN renal = test system: ACHN renal
HCT-15 colon = test system: HCT-15 colon
M19-MEL melanoma = test system: M19-MEL melanoma
KM20L2 colon = test system: KM20L2 colon
HS 578T breast = test system: HS 578T breast

SMILES | TGI (DLD-1 colon) [µM] | TGI (CCRF-CEM leukemia) [µM] | TGI (UO-31 renal) [µM] | TGI (LXFL 529 NSCLC) [µM] | TGI (NCI-H522 lung) [µM] | TGI (DMS 273 small cell lung) [µM] | TGI (SK-OV-3 ovarian) [µM] | TGI (SK-MEL-28 melanoma) [µM] | TGI (ACHN renal) [µM] | TGI (HCT-15 colon) [µM] | TGI (M19-MEL melanoma) [µM] | TGI (KM20L2 colon) [µM] | TGI (HS 578T breast) [µM]
COc1cc(OC)c2c(O)cc(CC(C)O)cc2c1 (stereo not drawn) | > 100 | > 100 | > 100 | > 100 | > 100 | > 100 | > 100 | > 100 | > 100 | > 100 | > 100 | > 100 | –
COc1ccc2[nH]c3c(c2c1)CCN(C)CC3 | > 100 | > 100 | – | – | – | > 100 | > 100 | > 100 | > 100 | > 100 | > 100 | > 100 | –
CC1OC(OCC2OC(Oc3c(-c4ccc(O)cc4)oc4cc(O)cc(O)c4c3=O)C(OC3OCC(O)(CO)C3O)C(O)C2O)C(O)C(O)C1O (stereo not drawn) | > 100 | > 100 | > 100 | > 100 | > 100 | > 100 | > 100 | > 100 | > 100 | 53.2 | 61.6 | > 100 | –
COC(=O)C12Oc3ccc(-c4ccc5c(c4O)C(=O)C4=CCC(C)C(O)C4(C(=O)OC)O5)c(O)c3C(=O)C1=CCC(C)C2O (stereo not drawn) | 2.14 | 9.26 | 2.79 | 2.65 | 2.45 | 3.25 | 6.71 | 3.51 | 3.21 | 3.46 | 3.63 | 2.93 | –
CC(=O)C1CC(C)=CCC12C(=O)Nc1ccccc12 (stereo not drawn) | > 100 | > 100 | – | > 100 | > 100 | > 100 | > 100 | > 100 | > 100 | > 100 | – | > 100 | –
Cc1ccc(C(=O)N(C2CCCCC2)C2CCCCC2)cc1N=NN(C)C | 28.6 | 54.7 | 26 | 27.8 | 16.7 | 31.4 | 33.5 | 17.9 | 22.4 | 27.1 | 34 | – | 43.9
O=c1c2ccccc2[nH]c(=S)n1-c1ccc(Br)cc1 | > 100 | – | > 100 | > 100 | > 100 | – | – | > 100 | > 100 | > 100 | > 100 | > 100 | –
CCc1cccc(C(C)C)c1NC(=O)C(=O)C(Cc1nc2ccccc2[nH]c1=O)C(=O)OC (stereo not drawn) | > 100 | > 100 | > 100 | > 100 | > 100 | > 100 | > 100 | > 100 | > 100 | > 100 | > 100 | > 100 | –
CCOC/N=C(/N)NC#N | > 100 | > 100 | > 100 | > 100 | > 100 | > 100 | > 100 | > 100 | > 100 | 45 | > 100 | > 100 | –
O=C(c1ccc(Cl)cc1)c1ccc(OCC(=O)N2CCN(c3ccccc3)CC2)cc1 | > 100 | > 100 | > 100 | > 100 | – | – | > 100 | > 100 | > 100 | > 100 | > 100 | > 100 | –
Cn1c(=O)c2c(nc(NCCCCl)n2CC(=O)O)n(C)c1=O | – | > 100 | > 100 | – | > 100 | – | > 100 | > 100 | > 100 | > 100 | – | – | > 100
COc1cc2c(cc1C[N+](C)(C)CSc1ccccc1)-c1ccccc1CC2 | – | 14.3 | 28.6 | – | 10.7 | – | 26.1 | > 35.1 | 28.6 | 30.2 | – | – | 19.3
c1ccc(CNc2c3c(nc4ccccc24)CCC3)cc1 | – | 20.9 | 25 | – | 39.3 | – | 36.2 | 24.3 | 40.9 | 68.4 | – | – | 65.5
COc1ccc(N(C(=O)Nc2ccc(Cl)c(Cl)c2)c2ccccc2)cc1 | – | > 10 | > 10 | – | > 10 | – | > 10 | > 10 | > 10 | > 10 | – | – | > 10
O=C(Nc1ccccc1)O/N=C(/CBr)c1ccccc1 | – | > 100 | 32.4 | – | 29.3 | – | 95 | 43.2 | 33.2 | 22.2 | – | – | 90.6
CCC1C(=O)C[C@H]2[C@@H]3C(O)CC4=CC(=O)CC[C@]4(C)[C@H]3CC[C@]12C (stereo partly drawn) | – | > 50 | > 50 | – | > 50 | – | > 50 | > 50 | > 50 | > 50 | – | – | > 50
CCCCOC(=O)CNC(=O)OCCCCC#CC#CCCCCOC(=O)NCC(=O)OCCCC | > 100 | > 100 | > 100 | > 100 | > 100 | > 100 | > 100 | – | > 100 | – | > 100 | > 100 | –
CCOC(C[Se]CC(OCC)OCC)OCC | – | 95.9 | > 100 | – | > 100 | – | > 100 | > 100 | > 100 | > 100 | – | – | 45.9
COC(=O)CCC(NC(=O)OC(C)(C)C)C(=O)NC(Cc1ccc([N+](=O)[O-])cc1)C(=O)NCC(=O)OCc1ccccc1 (stereo not drawn) (Boc-Glu(OMe)-[Phe(4-NO2)]-Gly-OBn; configuration not given here) | – | > 100 | > 100 | – | > 100 | – | > 100 | > 100 | > 100 | > 100 | – | – | > 64.4
O=[N+]([O-])c1cccc(-c2csc(N=Nc3c(O)[nH]c4ccccc34)n2)c1 | – | 56.5 | > 100 | – | 36.6 | – | > 100 | 36.1 | > 100 | 54.4 | – | – | 45.7
COC1=CC(=O)c2ccccc2C1(CCC=C(C)C)C1=NC(C)(C)CO1 (stereo not drawn) | > 100 | > 100 | > 100 | > 100 | > 100 | > 100 | > 100 | > 100 | > 100 | > 100 | > 100 | > 100 | –
CCCCOC(=O)C(=O)C(CCC(=O)c1ccc(C)cc1)C(=O)C=C(C)C (stereo not drawn) | – | > 100 | > 100 | – | > 100 | – | > 100 | > 100 | > 100 | > 100 | – | – | > 100
COc1cccc2cc(C)c(C(=O)c3ccccc3)nc12 | > 100 | > 100 | > 100 | > 100 | > 100 | > 100 | – | > 100 | > 100 | > 100 | > 100 | > 100 | –
CC(=O)Oc1ccc(/C=C/C(=O)O[C@@H](C)[C@H](C)OC(=O)/C=C/c2ccc(OC(C)=O)c(OC(C)=O)c2)cc1OC(C)=O | – | 42.3 | > 100 | – | 28.1 | – | 77.2 | 77.7 | > 100 | 33.1 | – | – | > 100
COc1ccc(N2C=Nn3c(nc4sc(C)c(C)c4c3=O)C2)cc1 | – | > 100 | > 100 | – | > 100 | – | > 100 | > 100 | > 100 | > 100 | – | – | > 100
NCCC(N)C(=O)O (stereo not drawn) | – | > 100 | > 100 | – | > 100 | – | > 100 | > 100 | > 100 | > 100 | – | – | > 100
Cc1ccc(S(=O)(=O)N/C(=C\C=C\c2ccccc2)C(=O)C(C)(C)C)cc1 | – | > 100 | > 100 | – | > 100 | – | > 100 | > 100 | > 100 | > 100 | – | – | > 100
Cn1ccnc1Sc1ccc(/C=N/NC(=O)c2ccccc2O)cc1[N+](=O)[O-] | – | > 100 | > 100 | – | > 100 | – | > 100 | > 100 | > 100 | > 100 | – | – | > 100
CCCCCc1cc(OC(=O)c2c(O)cc(OC)cc2CCCCC)cc(O)c1C(=O)O | 26.7 | 47.8 | 26.6 | 30.5 | 28.2 | 32.4 | 31.5 | 32.9 | 35.9 | 30.7 | 33.8 | 33.3 | –
N#CC1=C2Sc3ccccc3N2[C@H](c2ccccc2)[C@H]2COC(=O)[C@@H]12 | – | 30.7 | > 100 | – | 27 | – | > 100 | > 100 | > 100 | > 100 | – | – | > 100
